Results from ChEMBL document CHEMBL5465560, “Selectivity Literature for EUbOPEN Chemogenomic Library” (2024).

Legend:
[1] = molecular target: Dual specificity protein kinase CLK3 (Homo sapiens, UniProt P49761); test: Selectivity interaction (KinomeScan (DiscoverX)) EUB0000607a CLK3; conditions: at 10 µM
[2] = molecular target: AP2-associated protein kinase 1 (Homo sapiens, UniProt Q2M2I8); conditions: at 10 µM
[3] = molecular target: N-lysine methyltransferase SMYD2 (Homo sapiens) (UniProt Q9NRG4); test: Selectivity interaction (Methyltransferase screen (Scintillation proximity assays)) EUB0000255b SMYD2
Chain of N-lysine methyltransferase SMYD2 (Homo sapiens) (Q9NRG4 whole entry): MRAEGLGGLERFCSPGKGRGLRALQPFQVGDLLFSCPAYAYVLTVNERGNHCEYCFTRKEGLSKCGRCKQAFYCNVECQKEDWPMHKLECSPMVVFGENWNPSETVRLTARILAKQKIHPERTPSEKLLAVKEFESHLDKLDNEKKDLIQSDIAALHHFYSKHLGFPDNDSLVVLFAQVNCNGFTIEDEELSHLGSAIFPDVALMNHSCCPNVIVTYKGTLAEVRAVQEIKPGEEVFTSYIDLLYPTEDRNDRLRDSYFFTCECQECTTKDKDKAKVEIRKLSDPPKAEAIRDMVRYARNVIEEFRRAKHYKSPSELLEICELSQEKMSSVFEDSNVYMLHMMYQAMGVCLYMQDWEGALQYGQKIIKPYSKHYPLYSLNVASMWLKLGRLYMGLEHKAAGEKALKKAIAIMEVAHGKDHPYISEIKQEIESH

[4] = molecular target: T1, Serine/threonine-protein kinase D1 (Homo sapiens) (UniProt Q15139); test: Selectivity interaction (KinomeScan (DiscoverX)) EUB0001079a PRKD1; conditions: at 1 µM
T1 sequence (whole entry): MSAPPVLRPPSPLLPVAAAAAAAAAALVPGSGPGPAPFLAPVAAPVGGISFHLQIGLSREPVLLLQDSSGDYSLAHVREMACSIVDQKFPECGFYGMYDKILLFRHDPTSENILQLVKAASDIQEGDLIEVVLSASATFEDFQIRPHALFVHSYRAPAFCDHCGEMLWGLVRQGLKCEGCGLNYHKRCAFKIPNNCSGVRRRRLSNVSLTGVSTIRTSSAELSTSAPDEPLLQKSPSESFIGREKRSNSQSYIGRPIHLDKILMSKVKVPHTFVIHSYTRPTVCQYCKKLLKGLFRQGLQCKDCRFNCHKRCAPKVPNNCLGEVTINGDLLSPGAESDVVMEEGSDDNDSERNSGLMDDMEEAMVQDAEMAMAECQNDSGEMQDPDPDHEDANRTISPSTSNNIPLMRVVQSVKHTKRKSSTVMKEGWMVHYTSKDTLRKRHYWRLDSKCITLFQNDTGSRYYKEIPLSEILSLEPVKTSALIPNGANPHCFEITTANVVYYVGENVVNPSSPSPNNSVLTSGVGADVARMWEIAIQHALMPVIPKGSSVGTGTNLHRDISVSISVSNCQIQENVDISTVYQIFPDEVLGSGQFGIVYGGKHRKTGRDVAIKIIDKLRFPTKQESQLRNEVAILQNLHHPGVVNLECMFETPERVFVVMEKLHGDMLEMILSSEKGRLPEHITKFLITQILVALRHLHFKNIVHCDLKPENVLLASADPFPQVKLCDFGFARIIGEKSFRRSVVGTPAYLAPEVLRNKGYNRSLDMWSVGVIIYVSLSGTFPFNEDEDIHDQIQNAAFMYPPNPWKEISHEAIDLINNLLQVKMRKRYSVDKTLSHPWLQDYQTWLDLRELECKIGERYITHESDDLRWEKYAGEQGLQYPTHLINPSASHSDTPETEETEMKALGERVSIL

[5] = molecular target: T2, Serine/threonine-protein kinase 36 (Homo sapiens) (UniProt Q9NRP7); test: Selectivity interaction (KinomeScan (DiscoverX)) EUB0000229b STK36; conditions: at 10 µM
T2 sequence (whole entry): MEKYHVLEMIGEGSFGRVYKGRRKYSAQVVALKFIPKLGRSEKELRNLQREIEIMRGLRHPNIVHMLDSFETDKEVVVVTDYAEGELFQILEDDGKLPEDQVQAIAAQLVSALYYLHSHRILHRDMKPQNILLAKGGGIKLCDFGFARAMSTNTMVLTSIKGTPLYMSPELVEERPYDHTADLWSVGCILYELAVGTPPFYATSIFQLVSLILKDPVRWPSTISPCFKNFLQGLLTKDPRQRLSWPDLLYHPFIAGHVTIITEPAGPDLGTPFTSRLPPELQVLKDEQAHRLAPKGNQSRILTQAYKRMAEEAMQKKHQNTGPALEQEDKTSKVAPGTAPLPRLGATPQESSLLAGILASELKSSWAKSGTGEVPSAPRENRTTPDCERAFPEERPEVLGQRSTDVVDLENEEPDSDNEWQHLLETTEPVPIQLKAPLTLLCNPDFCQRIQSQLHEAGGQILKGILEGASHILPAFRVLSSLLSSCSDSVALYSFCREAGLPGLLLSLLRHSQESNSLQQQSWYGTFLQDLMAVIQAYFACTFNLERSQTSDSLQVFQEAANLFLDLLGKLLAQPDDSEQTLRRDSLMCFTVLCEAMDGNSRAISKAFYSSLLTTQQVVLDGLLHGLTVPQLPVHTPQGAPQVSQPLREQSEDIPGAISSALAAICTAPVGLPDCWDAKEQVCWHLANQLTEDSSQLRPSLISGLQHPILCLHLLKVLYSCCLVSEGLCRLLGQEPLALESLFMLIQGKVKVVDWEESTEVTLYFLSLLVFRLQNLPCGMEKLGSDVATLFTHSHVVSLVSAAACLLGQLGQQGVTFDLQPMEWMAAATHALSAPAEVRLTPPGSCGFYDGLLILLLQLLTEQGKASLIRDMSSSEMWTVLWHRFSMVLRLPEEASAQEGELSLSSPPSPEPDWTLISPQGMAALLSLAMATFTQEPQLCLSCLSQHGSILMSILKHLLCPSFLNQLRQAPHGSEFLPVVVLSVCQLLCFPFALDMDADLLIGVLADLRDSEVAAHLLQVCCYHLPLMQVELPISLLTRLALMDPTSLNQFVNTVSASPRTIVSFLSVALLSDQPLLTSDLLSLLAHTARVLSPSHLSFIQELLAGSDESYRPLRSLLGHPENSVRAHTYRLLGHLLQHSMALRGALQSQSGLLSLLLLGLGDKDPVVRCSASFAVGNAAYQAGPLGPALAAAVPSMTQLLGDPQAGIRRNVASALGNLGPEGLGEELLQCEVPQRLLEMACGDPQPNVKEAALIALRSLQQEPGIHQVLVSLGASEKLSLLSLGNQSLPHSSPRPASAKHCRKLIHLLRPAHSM

[6] = test system: Proto-oncogene tyrosine-protein kinase receptor Ret (Homo sapiens), P07949 [V804M]; conditions: at 10 µM
Chain of Proto-oncogene tyrosine-protein kinase receptor Ret (Homo sapiens), P07949 [V804M] (P07949 whole entry V804M): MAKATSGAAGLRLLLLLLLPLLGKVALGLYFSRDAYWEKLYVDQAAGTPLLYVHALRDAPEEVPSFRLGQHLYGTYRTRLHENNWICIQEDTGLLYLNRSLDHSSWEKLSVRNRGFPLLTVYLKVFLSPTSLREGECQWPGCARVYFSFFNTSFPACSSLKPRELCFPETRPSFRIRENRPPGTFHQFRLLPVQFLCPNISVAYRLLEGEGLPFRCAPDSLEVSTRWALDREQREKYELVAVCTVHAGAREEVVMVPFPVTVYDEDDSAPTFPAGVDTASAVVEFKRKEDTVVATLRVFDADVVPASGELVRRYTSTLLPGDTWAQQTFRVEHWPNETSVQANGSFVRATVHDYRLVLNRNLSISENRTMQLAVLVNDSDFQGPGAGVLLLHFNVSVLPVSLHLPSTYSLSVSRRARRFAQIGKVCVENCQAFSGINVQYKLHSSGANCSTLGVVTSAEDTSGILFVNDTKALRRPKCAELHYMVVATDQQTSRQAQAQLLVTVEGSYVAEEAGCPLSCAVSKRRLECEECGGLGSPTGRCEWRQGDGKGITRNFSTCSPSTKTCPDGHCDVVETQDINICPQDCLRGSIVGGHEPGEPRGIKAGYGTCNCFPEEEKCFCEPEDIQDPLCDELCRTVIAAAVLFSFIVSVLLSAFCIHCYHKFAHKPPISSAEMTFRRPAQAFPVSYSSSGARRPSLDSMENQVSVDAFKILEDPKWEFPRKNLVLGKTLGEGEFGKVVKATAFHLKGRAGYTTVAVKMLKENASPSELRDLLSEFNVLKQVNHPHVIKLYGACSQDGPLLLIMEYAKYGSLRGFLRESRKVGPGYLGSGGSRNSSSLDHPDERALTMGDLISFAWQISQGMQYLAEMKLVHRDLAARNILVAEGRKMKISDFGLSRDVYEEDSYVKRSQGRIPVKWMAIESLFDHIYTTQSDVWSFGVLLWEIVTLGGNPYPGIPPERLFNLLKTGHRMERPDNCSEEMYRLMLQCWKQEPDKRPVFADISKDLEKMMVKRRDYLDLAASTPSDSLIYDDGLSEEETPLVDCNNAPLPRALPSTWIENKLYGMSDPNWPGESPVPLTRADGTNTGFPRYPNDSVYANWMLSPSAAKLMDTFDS

[7] = molecular target: Myosin light chain kinase, smooth muscle (Homo sapiens, UniProt Q15746); test: Selectivity interaction (KinomeScan (DiscoverX)) EUB0001619a MYLK; conditions: at 1 µM
Chain of Myosin light chain kinase, smooth muscle (Q15746 whole entry): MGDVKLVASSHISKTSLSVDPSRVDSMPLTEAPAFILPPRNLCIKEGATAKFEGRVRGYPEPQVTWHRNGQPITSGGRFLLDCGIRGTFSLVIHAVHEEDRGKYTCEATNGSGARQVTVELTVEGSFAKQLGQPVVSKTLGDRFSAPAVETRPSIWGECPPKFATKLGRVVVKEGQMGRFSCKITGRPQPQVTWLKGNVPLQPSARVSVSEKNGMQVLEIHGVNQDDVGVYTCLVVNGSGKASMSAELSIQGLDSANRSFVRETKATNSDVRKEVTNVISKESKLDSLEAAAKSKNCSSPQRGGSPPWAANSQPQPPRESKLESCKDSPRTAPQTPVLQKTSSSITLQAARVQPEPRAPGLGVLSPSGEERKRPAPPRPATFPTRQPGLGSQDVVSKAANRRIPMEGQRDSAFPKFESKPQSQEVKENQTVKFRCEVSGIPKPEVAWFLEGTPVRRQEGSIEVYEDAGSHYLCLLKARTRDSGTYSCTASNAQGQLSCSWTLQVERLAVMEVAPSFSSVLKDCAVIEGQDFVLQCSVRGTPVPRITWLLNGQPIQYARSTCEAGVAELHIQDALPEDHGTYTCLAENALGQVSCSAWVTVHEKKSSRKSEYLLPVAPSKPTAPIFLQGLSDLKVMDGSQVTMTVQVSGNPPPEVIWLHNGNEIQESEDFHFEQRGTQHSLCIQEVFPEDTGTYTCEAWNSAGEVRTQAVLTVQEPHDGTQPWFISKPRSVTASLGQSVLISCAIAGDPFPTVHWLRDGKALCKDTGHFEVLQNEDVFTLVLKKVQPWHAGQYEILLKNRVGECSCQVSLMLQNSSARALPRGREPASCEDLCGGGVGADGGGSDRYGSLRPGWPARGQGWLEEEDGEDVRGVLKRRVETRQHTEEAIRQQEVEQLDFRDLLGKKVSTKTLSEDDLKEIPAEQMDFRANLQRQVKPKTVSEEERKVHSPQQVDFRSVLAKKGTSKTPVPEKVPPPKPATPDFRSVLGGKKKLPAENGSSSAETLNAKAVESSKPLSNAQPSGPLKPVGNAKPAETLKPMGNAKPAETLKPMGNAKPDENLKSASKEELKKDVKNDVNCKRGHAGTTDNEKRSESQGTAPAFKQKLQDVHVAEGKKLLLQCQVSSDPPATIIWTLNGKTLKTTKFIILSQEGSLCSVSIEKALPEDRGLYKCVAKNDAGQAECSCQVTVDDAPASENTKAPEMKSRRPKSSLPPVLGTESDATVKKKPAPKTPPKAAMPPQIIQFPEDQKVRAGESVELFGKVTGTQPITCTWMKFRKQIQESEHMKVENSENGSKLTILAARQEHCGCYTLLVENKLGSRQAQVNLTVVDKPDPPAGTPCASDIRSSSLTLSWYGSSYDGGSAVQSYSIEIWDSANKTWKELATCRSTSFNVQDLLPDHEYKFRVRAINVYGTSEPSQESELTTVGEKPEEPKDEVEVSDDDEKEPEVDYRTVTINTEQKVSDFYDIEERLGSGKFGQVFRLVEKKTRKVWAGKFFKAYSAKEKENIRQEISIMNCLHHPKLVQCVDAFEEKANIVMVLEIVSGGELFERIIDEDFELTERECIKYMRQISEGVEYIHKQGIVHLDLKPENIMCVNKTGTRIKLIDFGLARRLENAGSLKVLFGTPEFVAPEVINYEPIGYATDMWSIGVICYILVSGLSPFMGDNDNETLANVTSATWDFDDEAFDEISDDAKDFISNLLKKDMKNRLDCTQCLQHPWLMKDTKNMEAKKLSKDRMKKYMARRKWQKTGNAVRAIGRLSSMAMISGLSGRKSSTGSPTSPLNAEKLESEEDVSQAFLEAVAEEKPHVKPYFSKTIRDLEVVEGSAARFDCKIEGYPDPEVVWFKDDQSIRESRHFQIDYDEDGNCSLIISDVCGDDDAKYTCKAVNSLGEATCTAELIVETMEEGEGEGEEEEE

Chain of Dual specificity protein kinase CLK3 (P49761 whole entry, looked up): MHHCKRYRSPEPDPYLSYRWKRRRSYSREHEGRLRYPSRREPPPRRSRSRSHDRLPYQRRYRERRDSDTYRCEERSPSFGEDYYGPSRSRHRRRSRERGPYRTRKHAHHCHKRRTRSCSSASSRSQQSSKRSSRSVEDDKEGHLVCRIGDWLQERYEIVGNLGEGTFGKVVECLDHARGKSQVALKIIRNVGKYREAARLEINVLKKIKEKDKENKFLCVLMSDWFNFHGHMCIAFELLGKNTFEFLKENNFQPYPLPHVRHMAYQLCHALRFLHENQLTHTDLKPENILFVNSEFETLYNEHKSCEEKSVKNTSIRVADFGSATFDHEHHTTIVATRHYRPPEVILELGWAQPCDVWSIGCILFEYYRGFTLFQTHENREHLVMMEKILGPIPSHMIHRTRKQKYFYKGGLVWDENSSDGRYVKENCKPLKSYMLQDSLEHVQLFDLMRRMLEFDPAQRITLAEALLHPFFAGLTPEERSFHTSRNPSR
Chain of AP2-associated protein kinase 1 (Q2M2I8 whole entry, looked up): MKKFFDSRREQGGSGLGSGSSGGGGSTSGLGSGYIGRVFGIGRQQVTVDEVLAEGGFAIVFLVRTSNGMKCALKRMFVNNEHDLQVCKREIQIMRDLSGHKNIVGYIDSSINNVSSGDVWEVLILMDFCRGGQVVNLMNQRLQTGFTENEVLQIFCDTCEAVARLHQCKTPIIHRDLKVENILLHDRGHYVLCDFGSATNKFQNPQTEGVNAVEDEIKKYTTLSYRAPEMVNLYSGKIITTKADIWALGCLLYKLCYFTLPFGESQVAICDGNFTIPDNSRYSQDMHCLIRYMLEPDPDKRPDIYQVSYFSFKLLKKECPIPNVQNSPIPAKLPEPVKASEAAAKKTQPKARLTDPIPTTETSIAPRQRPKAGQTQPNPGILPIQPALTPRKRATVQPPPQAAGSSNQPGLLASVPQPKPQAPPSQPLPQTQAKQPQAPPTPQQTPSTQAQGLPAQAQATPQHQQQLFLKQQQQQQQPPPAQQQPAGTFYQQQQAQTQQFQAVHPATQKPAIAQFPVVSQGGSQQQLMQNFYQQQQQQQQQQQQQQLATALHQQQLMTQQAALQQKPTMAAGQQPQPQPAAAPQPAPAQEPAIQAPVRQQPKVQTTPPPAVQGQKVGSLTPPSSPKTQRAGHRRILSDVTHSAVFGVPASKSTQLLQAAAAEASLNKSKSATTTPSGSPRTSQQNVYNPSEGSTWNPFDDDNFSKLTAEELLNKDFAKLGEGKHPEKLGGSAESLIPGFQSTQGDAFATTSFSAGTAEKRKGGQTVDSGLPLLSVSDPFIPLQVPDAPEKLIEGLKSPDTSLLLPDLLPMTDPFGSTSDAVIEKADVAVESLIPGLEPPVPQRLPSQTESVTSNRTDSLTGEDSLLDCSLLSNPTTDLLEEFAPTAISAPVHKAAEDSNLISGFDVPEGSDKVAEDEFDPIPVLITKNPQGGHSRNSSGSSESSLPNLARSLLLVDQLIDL

## CNC(=O)Nc1ccc(-c2nc(N3CC4CCC(C3)O4)c3cnn(C4CCC5(CC4)OCCO5)c3n2)cc1
[1]
  % of control: 31%

## CCN(CC)CCCCNc1ncc2cc(-c3cc(OC)cc(OC)c3)c(NC(=O)NC(C)(C)C)nc2n1
[2]
  % of control: 100%

## COCCN1CCC(c2cc(CN(C)C(=O)c3cccc(Oc4ccccc4)c3)ccn2)CC1
[3]; at 1 µM
  % activity: > 95%
[3]; at 10 µM
  % activity: > 90%

## Nc1cnc(N2CCc3cc(S(=O)(=O)Nc4c(F)cc(Cl)cc4F)cc(N4CCCC4=O)c32)nc1 [TP-020n]
[4]
  % of control: 83%

## COc1cc(N(C)c2ccnc3ccc(C(F)(F)F)cc23)cc(OC)c1OC
[5]
  % binding: 100%

## Cc1cc([C@@H](C)Nc2ccccc2C(=O)O)c2nc(N3CCOCC3)cc(=O)n2c1 [AZD-6482]
[6]
  % of control: 100%

## N#Cc1cccc(-c2c[nH]c3ncnc(N4CCOCC4)c23)c1
[7]
  % of control: 100%
